# US9388126B2, “Sigma receptor ligands and methods of modulating cellular protein homeostasis using same” (Drexel University, priority 2012, dated 2016)
# Where “and” joins values, the source holds several entries; their conditions need not be identical. Equal entries are not always repeated.
# Tests used:
# [1] = test system: T-47D breast adenocarcinoma cells; assay: Cell size by flow cytometry (mean FSC-H, G1 phase); type: cell-based, human; details: 10 μM
# Method: FIG. 31A is a differential interference contrast (DIC) image of MDA-MB-468 breast adenocarcinoma cells treated for ˜20 hours with DMSO (drug vehicle control), 10 μM IPAG (antagonist) or 10 μM PRE084 (agonist). A twenty-micron bar is shown in each image. Data are presented as mean±SEM. FIG. 31B is a graph illustrating the finding that IPAG diminished the mean cell size (FSC-H) of MDA-MB-468 breast tumor cells in a time-responsive manner. The mean FSC-H of 370±5 at to decreased to 323±4 after 24 hours of IPAG treatment and to 267±2 after 48 hours of treatment. Two-tailed t-tests were performed to determine statistical significance. For IPAG treatment compared to control (DMSO) and Sigma agonists (SKF and PRE084), P=0.0002 at d1 and P=0.00013 at d2. Data were generated from three to five independent determinations for each time-point. Flow cytometry was used to measure mean cell size (mean FSC-H) of T-47D breast adenocarcinoma cells. FIG. 31C is a bar graph illustrating T-47D cells treated for 24 hours with 10 μM indicated Sigma ligand. IPAG and BD 1047 (Sigma1 antagonists) diminished cell size from a mean FSC-H of 412±5 for control (DMSO) cells versus 341±7 and 381±8 for IPAG and BD1047 treated cells, respectively. […] Data represent 5 independent determinations (*P<0.05, ***P<0.001). FIG. 31D is a bar graph illustrating how IPAG (antagonist) decreases cell size in a dose responsive manner. T-47D were treated for 24 h with 1 and 10 μM IPAG, and mean FSC-H was measured. FIG. 31E is a graph illustrating that T47D cell size decreases over time. T-47D cells were treated for a total of 48 hours with 10 μM of the indicated Sigma ligands. […] Neither Sigma1 agonist, (+)-SKF10047 and PRE084, altered cell size. […] Two-tailed t-tests were performed to determine statistical significance. For IPAG treatment compared to control (DMSO) and Sigma1 agonists (SKF and PRE084), P=0.0002 at d1 and P<0.0001 at d2. For FIGS. 31B-31E, the mean FSC-H was determined for each cell cycle population (i.e., G1, S, G2/M), and data is shown for G1 phase cells. S and G2/M phase cells responded similarly (data not shown).
# MDA-MB-468 cells [2] = assay: SubG1 population by flow cytometry; type: cell-based, human; details: 10 μM, 48 h
# Method: FIG. 29 illustrates the time-course of a Sigma1 antagonist inducing apoptotic cell death of breast adenocarcinoma cells. Treatment with Sigma1 antagonist, IPAG, induces apoptotic cell death of MDA-MB-468 cells, as indicated by the percentage of subG1 phase cells. […] The far left panel represents cells treated or 24 hours with DMSO (vehicle control).
# FIG. 37, comprising FIGS. 37A-37D, illustrates that inhibition of autophagy accelerates and/or potentiates Sigma1 antagonist induced apoptosis. FIG. 37A is a graph illustrating the time-course of Sigma antagonist-induced cell death as measured by flow cytometry. MDA-MB-468 cells were treated with DMSO (control), 10 μM IPAG (antagonist), or 10 μM PRE084 (agonist), fixed and stained with propidium iodide for DNA content analysis. The subG1 population was quantified and used as a measure of cell death. Data are from 4 independent determinations. FIG. 37B is an image of a Western blot of caspase 3 (Asp175) cleavage. IPAG induced apoptotic cell death occurred at the 48 hour treatment time point. FIG. 37C is a graph illustrating DA-MB-468 cells treated for 24 hours with a combination of IPAG (10 μM) and autophagy inhibitor 3-methyladenine (3-MA, 5 mM). Cell death was measured by trypan blue exclusion. […] For FIGS. 37A-37C, statistical significance was determined by two-way ANOVA followed by Bonferroni post-test, ***P<0.001.
# [3] = test system: MCF-7, T47D and MDA-MB-468 cells; assay: Cell proliferation by Alamar blue reduction, breast adenocarcinoma cultures; type: cell-based, human; details: after 4 days of treatment, six drug concentrations
# From the text: In vitro cell proliferation was quantitated by Alamar blue reduction. The anti-proliferative effects of six drug concentrations of the indicated drugs were quantitated after 4 days of treatment.
# PC3 and DU145 PCa cells = assay: UPR induction in prostate cancer cell lines; type: cell-based, human; details: preliminary experiments
# From the text: FIG. 15 is an image of an immunoblot illustrating induction of UPR in a prostate cancer cell line. […] P-IRE1α indicates phosphorylated IRE1α. Similar results were obtained with DU145 prostate cancer cells.
# This might be due to an accumulation of ubiquitylated proteins or due to an increase in ubiquitin ligase activity. Progression of the ER stress response could be monitored by a set of markers, many of which have been directly linked to the UPR. The most extensively investigated sensors that initiate the UPR are IRE1α, PERK, and ATF6, which transduce signals to a cascade of effectors. Many of these UPR 4 effectors function as transcription factors that induce the synthesis of ER chaperones, such as GRP78/BiP and GRP94, involved in maintaining protein homeostasis.
# MDA-MB-468 cells [4] = assay: Alamar blue assay of bortezomib potentiation; type: cell-based, human; details: 10 μM IPAG with 0.01 μM bortezomib, 20 hours
# Method: In vitro cell proliferation and cell death were quantified by Alamar blue reduction. To evaluate potentiation of proteasome inhibitor (bortezomib)-induced cell death by IPAG, MDA-MB-468 cells were treated for 20 hours with a 10 μM IPAG or 0.01 μM bortezomib alone or both drugs combined. Cell death was confirmed by trypan blue exclusion assay (data not shown). Data are representative of an experiment performed in triplicate.
# Sigma1 = Sigma1 (Homo sapiens, UniProt Q99720); details: read-out: Ki, affinity for the Sigma1; cited from earlier work
# Chain of Sigma1 (Q99720 whole entry): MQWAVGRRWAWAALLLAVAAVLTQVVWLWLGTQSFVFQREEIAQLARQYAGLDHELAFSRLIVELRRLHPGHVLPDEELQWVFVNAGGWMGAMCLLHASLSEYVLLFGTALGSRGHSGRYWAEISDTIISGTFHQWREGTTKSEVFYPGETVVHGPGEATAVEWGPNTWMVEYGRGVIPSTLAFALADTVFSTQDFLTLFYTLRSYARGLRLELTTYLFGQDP
smiles,measurement,setting,value
"N=C(Nc1ccc(I)cc1)NC1C2CC3CC(C2)CC1C3 (stereo not shown) [IPAG, 1-(4-iodophenyl)-3-(2-adamantyl)guanidine]",mean FSC-H (relative cell size),"[1]; 24 hours, control 412±5",341±7 and 331±3
same,mean FSC-H (relative cell size),[1]; 48 hours (d2),300±2
same,"subG1 (dead, apoptotic) cells",MDA-MB-468 cells [2],31.7%
same,inhibition of cell proliferation,[3],inhibited cell proliferation with comparable potencies in all cell lines
same,IRE1α and BiP levels,PC3 and DU145 PCa cells,salient induction of IRE1α and BiP levels
same,potentiation of bortezomib-induced cell death,MDA-MB-468 cells [4],potentiates bortezomib-induced adenocarcinoma cell death
same,Ki,Sigma1,5 ± 2 nM
